Laboratory results as given in ChEMBL document CHEMBL1201862, “PubChem BioAssay data set” (2004).
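Each compound was tested at five concentrations against cells in 96-well plates for 48 hours. GI50 is the concentration that inhibits growth by half.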 Activity calls are given as the source filed them. Cut-off read from the data, not from the text of the source: active = GI50 up to about 1.1 µM and inactive = higher.

Columns and labels:
Experiment in all cases: NCI anticancer screen, dose series, 48 h
NCI-H226 = test system: NCI-H226
SNB-19 = test system: SNB-19
SF-295 = test system: SF-295
OVCAR-8 = test system: OVCAR-8
OVCAR-3 = test system: OVCAR-3
MDA-N = test system: MDA-N
A549 = test system: A549
SK-MEL-5 = test system: SK-MEL-5
K562 = test system: K562
RXF 393 = test system: RXF 393
ACHN = test system: ACHN
T47D = test system: T47D
LOX IMVI = test system: LOX IMVI
U-251 = test system: U-251
CAKI-1 = test system: CAKI-1
COLO 205 = test system: COLO 205
Hs-578T = test system: Hs-578T
SK-MEL-2 = test system: SK-MEL-2
UACC-257 = test system: UACC-257
SK-MEL-28 = test system: SK-MEL-28
HOP-62 = test system: HOP-62
BT-549 = test system: BT-549
786-0 = test system: 786-0
NCI-H460 = test system: NCI-H460
NCI/ADR-RES = test system: NCI/ADR-RES
HCC 2998 = test system: HCC 2998
MCF7 = test system: MCF7
HCT-15 = test system: HCT-15
DU-145 = test system: DU-145
HOP-92 = test system: HOP-92
SNB-75 = test system: SNB-75
HL-60 = test system: HL-60
KM12 = test system: KM12
SN12C = test system: SN12C
PC-3 = test system: PC-3
A498 = test system: A498
MDA-MB-435 = test system: MDA-MB-435
HT-29 = test system: HT-29
SF-539 = test system: SF-539
UO-31 = test system: UO-31
OVCAR-4 = test system: OVCAR-4
IGROV-1 = test system: IGROV-1
RPMI-8226 = test system: RPMI-8226
SK-OV-3 = test system: SK-OV-3
Malme-3M = test system: Malme-3M
NCI-H522 = test system: NCI-H522
TK-10 = test system: TK-10
OVCAR-5 = test system: OVCAR-5
HCT-116 = test system: HCT-116
MDA-MB-231 = test system: MDA-MB-231
EKVX = test system: EKVX
NCI-H23 = test system: NCI-H23
UACC-62 = test system: UACC-62
CCRF-CEM = test system: CCRF-CEM
MOLT-4 = test system: MOLT-4
SF-268 = test system: SF-268
SW-620 = test system: SW-620
M14 = test system: M14
SR = test system: SR

CC(C)(C)c1ccc(S(=O)(=O)N2C(c3cccc(C4CC[C@@H](C(=O)O)N4S(=O)(=O)c4ccc(C(C)(C)C)cc4)c3)CC[C@H]2C(=O)O)cc1 (stereo partly drawn)
GI50 (NCI-H226): 71.9 µM (inactive) | GI50 (SNB-19): 59.3 µM (inactive) | GI50 (SF-295): 45.8 µM (inactive) | GI50 (OVCAR-8): 67.5 µM (inactive) | GI50 (OVCAR-3): 28 µM (inactive) | GI50 (MDA-N): 55.2 µM (inactive) | GI50 (A549): 66.7 µM (inactive) | GI50 (SK-MEL-5): 57.7 µM (inactive) | GI50 (K562): 37.5 µM (inactive) | GI50 (RXF 393): 30.1 µM (inactive) | GI50 (ACHN): 57.4 µM (inactive) | GI50 (T47D): 29.9 µM (inactive) | GI50 (LOX IMVI): 79.4 µM (inactive) | GI50 (U-251): 38.9 µM (inactive) | GI50 (CAKI-1): 42.5 µM (inactive) | GI50 (COLO 205): 34 µM (inactive) | GI50 (Hs-578T): 47 µM (inactive) | GI50 (SK-MEL-2): 30.1 µM (inactive) | GI50 (UACC-257): 53 µM (inactive) | GI50 (SK-MEL-28): > 100 µM (inactive) | GI50 (HOP-62): 98.4 µM (inactive) | GI50 (BT-549): 50 µM (inactive) | GI50 (786-0): 49.4 µM (inactive) | GI50 (NCI-H460): 47.9 µM (inactive) | GI50 (NCI/ADR-RES): > 100 µM (inactive) | GI50 (HCC 2998): 47.4 µM (inactive) | GI50 (MCF7): 44 µM (inactive) | GI50 (HCT-15): 43.2 µM | GI50 (DU-145): 75.3 µM (inactive) | GI50 (HOP-92): 58.1 µM (inactive) | GI50 (SNB-75): > 100 µM (inactive) | GI50 (HL-60): 43.5 µM (inactive) | GI50 (KM12): 53.8 µM (inactive) | GI50 (SN12C): 47.3 µM (inactive) | GI50 (PC-3): 32.7 µM (inactive) | GI50 (A498): > 100 µM (inactive) | GI50 (MDA-MB-435): 54.7 µM (inactive) | GI50 (HT-29): 47.8 µM (inactive) | GI50 (SF-539): 87.3 µM (inactive) | GI50 (UO-31): 33.5 µM (inactive) | GI50 (OVCAR-4): 54.8 µM (inactive) | GI50 (IGROV-1): 33.5 µM (inactive) | GI50 (RPMI-8226): 34.5 µM (inactive) | GI50 (SK-OV-3): > 100 µM (inactive) | GI50 (Malme-3M): 87.1 µM (inactive) | GI50 (NCI-H522): 38.7 µM (inactive) | GI50 (TK-10): 65.5 µM (inactive) | GI50 (OVCAR-5): > 100 µM (inactive) | GI50 (HCT-116): 38.1 µM (inactive) | GI50 (MDA-MB-231): > 100 µM (inactive) | GI50 (EKVX): 30.1 µM (inactive) | GI50 (NCI-H23): 40.2 µM (inactive) | GI50 (UACC-62): 44.9 µM (inactive) | GI50 (CCRF-CEM): 33 µM (inactive) | GI50 (MOLT-4): 33 µM (inactive) | GI50 (SF-268): 77.8 µM (inactive) | GI50 (SW-620): 69.3 µM (inactive) | GI50 (M14): 54.1 µM (inactive) | GI50 (SR): 33.1 µM (inactive)

O=C1C2C3C4C1C1C2[C@H](OCc2ccccc2)C3C1[C@H]4OCc1ccccc1 (stereo partly drawn)
GI50 (NCI-H226): 76.9 µM (inactive) | GI50 (SNB-19): 67.9 µM (inactive) | GI50 (SF-295): > 100 µM (inactive) | GI50 (OVCAR-8): > 100 µM (inactive) | GI50 (OVCAR-3): 60.5 µM (inactive) | GI50 (MDA-N): > 100 µM (inactive) | GI50 (A549): 40.9 µM (inactive) | GI50 (SK-MEL-5): 36.3 µM (inactive) | GI50 (K562): > 100 µM (inactive) | GI50 (RXF 393): 31.8 µM (inactive) | GI50 (ACHN): 47.6 µM (inactive) | GI50 (T47D): 34.4 µM (inactive) | GI50 (LOX IMVI): 40.4 µM (inactive) | GI50 (U-251): 77.3 µM (inactive) | GI50 (CAKI-1): 41.7 µM (inactive) | GI50 (COLO 205): 28.9 µM (inactive) | GI50 (Hs-578T): 20.5 µM (inactive) | GI50 (SK-MEL-2): 51.2 µM (inactive) | GI50 (UACC-257): 33 µM (inactive) | GI50 (SK-MEL-28): 40.2 µM (inactive) | GI50 (HOP-62): 73.3 µM (inactive) | GI50 (BT-549): > 100 µM (inactive) | GI50 (786-0): > 100 µM (inactive) | GI50 (NCI-H460): 49.8 µM (inactive) | GI50 (NCI/ADR-RES): 19.7 µM (inactive) | GI50 (HCC 2998): 31.3 µM (inactive) | GI50 (MCF7): > 100 µM (inactive) | GI50 (HCT-15): 22.2 µM | GI50 (DU-145): > 100 µM (inactive) | GI50 (HOP-92): 17 µM (inactive) | GI50 (SNB-75): 38.9 µM (inactive) | GI50 (HL-60): 22.5 µM (inactive) | GI50 (KM12): 52.2 µM (inactive) | GI50 (SN12C): > 100 µM (inactive) | GI50 (PC-3): 36.1 µM (inactive) | GI50 (A498): > 100 µM (inactive) | GI50 (MDA-MB-435): 61.4 µM (inactive) | GI50 (HT-29): 15.2 µM (inactive) | GI50 (SF-539): 75.2 µM (inactive) | GI50 (UO-31): 55.8 µM (inactive) | GI50 (OVCAR-4): 70.3 µM (inactive) | GI50 (IGROV-1): > 100 µM (inactive) | GI50 (RPMI-8226): 36.6 µM (inactive) | GI50 (SK-OV-3): > 100 µM (inactive) | GI50 (Malme-3M): 76 µM (inactive) | GI50 (NCI-H522): 11.2 µM (inactive) | GI50 (TK-10): > 100 µM (inactive) | GI50 (OVCAR-5): 24.3 µM (inactive) | GI50 (HCT-116): 50.5 µM (inactive) | GI50 (MDA-MB-231): 82 µM (inactive) | GI50 (EKVX): 27.6 µM (inactive) | GI50 (NCI-H23): 48.8 µM (inactive) | GI50 (UACC-62): 41.5 µM (inactive) | GI50 (CCRF-CEM): > 100 µM (inactive) | GI50 (MOLT-4): 50.1 µM (inactive) | GI50 (SF-268): 60.5 µM (inactive) | GI50 (SW-620): 46 µM (inactive) | GI50 (M14): 51.8 µM (inactive) | GI50 (SR): 19.1 µM (inactive)
